Molecular target: T1, human PAD4 (Homo sapiens, UniProt Q9UM07)
T1 construct: human PAD4 (NM_012387), A2-P663, was PCR amplified; His-SUMO (N, cleaved yes); made in house; host or cells: E. coli BL21(DE3)
Assay: In vitro PAD4 BAEE biochemical assay
Conditions: BAEE substrate 3 mM, 5 nM PAD4, 2 mM calcium chloride; geometric mean of multiple experiments
Summary of the method: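 Recombinant human PAD4 (5 nM final) with 2 mM CaCl2 was preincubated with compound 30 min at 25 °C in MOPS buffer pH 7.6, then reacted with 3 mM BAEE for 2 h at 25 °C. After EDTA stop, released ammonia was detected by o-phthalaldehyde/DTT fluorescence (ex 405/em 535 nm); IC50 from four-parameter fit, geometric mean.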

T1 sequence (Q9UM07 2-663): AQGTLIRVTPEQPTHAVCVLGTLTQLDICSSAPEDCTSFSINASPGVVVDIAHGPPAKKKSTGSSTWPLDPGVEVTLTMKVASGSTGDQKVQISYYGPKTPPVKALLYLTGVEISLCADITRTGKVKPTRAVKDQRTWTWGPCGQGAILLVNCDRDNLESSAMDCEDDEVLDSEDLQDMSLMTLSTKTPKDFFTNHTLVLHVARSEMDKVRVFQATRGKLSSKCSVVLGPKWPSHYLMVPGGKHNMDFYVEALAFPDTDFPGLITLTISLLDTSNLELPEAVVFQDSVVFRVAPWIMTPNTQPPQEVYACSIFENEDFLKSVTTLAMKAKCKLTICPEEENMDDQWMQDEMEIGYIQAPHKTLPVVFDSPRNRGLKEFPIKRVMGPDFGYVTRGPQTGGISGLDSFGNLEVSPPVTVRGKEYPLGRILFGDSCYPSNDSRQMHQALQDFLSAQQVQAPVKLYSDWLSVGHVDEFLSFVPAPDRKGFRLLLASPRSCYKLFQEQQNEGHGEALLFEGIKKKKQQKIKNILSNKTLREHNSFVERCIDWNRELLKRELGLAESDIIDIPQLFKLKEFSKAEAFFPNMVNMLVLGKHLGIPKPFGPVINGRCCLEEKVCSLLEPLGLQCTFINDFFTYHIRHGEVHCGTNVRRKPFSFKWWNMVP

| Compound | IC50 |
| --- | --- |
| COc1cc(C(=O)N2CC[C@@H](OC)[C@@H](N)C2)cc2nc(-c3cc4ccc5nc4n3CCCCCC[C@@H](OC)C(=O)N[C@@H]5C)n(C)c12 [Example 628, (8~{R},11~{R})-17-[5-[(3~ {S},4~{R})-3-amino-4-methoxy-piperidine-1-carbonyl]-7-methoxy-1-methyl-benzimidazol-2-yl]-8-methoxy-11-methyl-1,10,19-triazatricyclo [10.5.2.0^{15,18}] nonadeca-12(19),13,15(18),16-tetraen-9-one] | 0.083 µM |
| C[C@H]1NC(=O)[C@@H]2C[C@]2(F)CCCCCn2c(-c3nc4cc(C(=O)N5C[C@H](N)[C@@H]6CC[C@H]5C6)cc(F)c4n3C3CC3)cc3ccc1nc32 [Example 712, (2~{R},5~{S},7~{R})-14-[5-[(1~{S},4~{R},5~ {R})-4-amino-2-azabicyclo [3.2.1]octane-2-carbonyl]-1-cyclopropyl-7-fluoro-benzimidazol-2-yl]-7-fluoro-2-methyl-3,13,19-triazatetracyclo[11.5.2.0^ {5,7}.0^{16,20}] icosa-1(19),14,16(20), 17-tetraen-4-one] | 0.024 µM |
| COc1cc(C(=O)N2[C@H]3CC[C@@H]2[C@H](N)C3)cc2nc(-c3cc4ccc5nc4n3C[C@H]3C[C@@H]3COCCC(=O)N[C@@H]5C)c(C)n12 [Example 323, (3~{S),5~{S},12~{R})-18-[7-[(1~{R},2~{R},4~{S})-2-amino-7-azabicyclo[2.2.1]heptane-7-carbonyl]-5-methoxy-3-methyl-imidazo[1,2-a]pyridin-2-yl]-12-methyl-7-oxa-1,11,20-triazatetracyclo[11.5.2.0^{3,5}.0^{16,19}] icosa-13(20),14,16(19),17-tetraen-10-one] | 0.014 µM |
| COc1cc(C(=O)N2CC3(CCCCNC3)C2)cc2nc(-c3cc4ccc5nc4n3CC(F)(F)CCC[C@@H]3C[C@H]3C(=O)N[C@@H]5C)n(C)c12 [Example 632, (2~{R},5~{R},7~{R})-14-[5-(2,9-diazaspiro[3.6]decane-2-carbonyl)-7-methoxy-1-methyl-benzimidazol-2-yl]-11,11-difluoro-2-methyl-3,13,19-triazatetracyclo [11.5.2.0^{5,7}.0^{16,20}] icosa-1(19),14,16(20), 17-tetraen-4-one] | 0.046 µM |
| C[C@H]1NC(=O)c2nccnc2CCCCCn2c(-c3nc4cc(C(=O)N5C[C@H](N)[C@@H]6CC[C@H]5C6)c(F)c(F)c4n3C3CC3)cc3ccc1nc32 [Example 877, (2~{R})-17-[5-[(1~{S},4~{R}, 5~{})-4-amino-2-azabicyclo [3.2.1]octane-2-carbonyl]-1-cyclopropyl-6,7-difluoro-benzimidazol-2-yl]-2-methyl-3,6,9,16,22-pentazatetracyclo [14.5.2.0^{5,10}.0^{19,23}] tricosa-1(22),5(10),6,8,17,19(23), 20-heptaen-4-one] | 0.04 µM |
| C[C@H]1NC(=O)[C@@]2(C)C[C@@H]2CCCCCn2c(-c3nc4cc(C(=O)N[C@H]5CNCC[C@@H]5F)c(F)cc4n3C)cc3ccc1nc32 [Example 548, 2-[(2~{R},5~{S},7~ {S})-2,5-dimethyl-4-oxo-3,13,19-triazatetracyclo[11.5.2.0^ {5,7}.0^{16,20}]icosa-1(19),14,16(20),17-tetraen-14-yl]-6-fluoro-~{N}-[(3~{S},4~{S})-4-fluoro-3-piperidyl]-1-methyl-benzimidazole-5-carboxamide] | 0.056 µM |
| COc1cc(C(=O)N2CC[C@@H](CO)[C@@H](N)C2)cc2nc(-c3cc4ccc5nc4n3CCCCCCC(C)(C)C(=O)N[C@@H]5C)n(C)c12 [Example 533, (11~{R})-17-[5-[(3~ {R},4~{R})-3-amino-4-(hydroxymethyl)piperidine-1-carbonyl]-7-methoxy-1-methyl-benzimidazol-2-yl]-8,8,11-trimethyl-1,10,19-triazatricyclo [10.5.2.0^{15,18}]nonadeca-12(19),13,15(18),16-tetraen-9-one] | 0.398 µM |
| COc1cc(C(=O)N2[C@H]3CC[C@@H]2[C@H](N)C3)cc2nc(-c3cc4ccc5nc4n3CCCCCC[C@H](OC)C(=O)N[C@@H]5C)c(C)n12 (single isomer, unassigned) [Example 335, (8˜{S},11˜{R})-17-[7-[(1˜{R},2˜{R},4˜{S})-2-amino-7-azabicyclo[2.2.1]heptane-7-carbonyl]-5-methoxy-3-methyl-imidazo[1,2-a]pyridin-2-yl]-8-methoxy-11-methyl-1,10,19-triazatricyclo[10.5.2.0^{15,18}]nonadeca-12(19),13,15(18),16-tetraen-9-one] | 0.032 µM |
| COc1cc(C(=O)N2CCC[C@@H](N)C2)cc2nc(-c3cc4ccc5nc4n3CCCCCCOc3ccccc3C(=O)N[C@@H]5C)c(C)n12 [Example 147, (2~{R})-19-[7-[(3~{R})-3-aminopiperidine-1-carbonyl]-5-methoxy-3-methyl-imidazo[1,2-a]pyridin-2-yl]-2-methyl-11-oxa-3,18,24-triazatetracyclo [16.5.2.0^{5,10}.0^{21,25}] pentacosa-1(24),5(10),6,8,19,21(25),22-heptaen-4-one] | 0.365 µM |
| COc1cc(C(=O)N[C@H]2CNCC[C@@H]2F)cc2nc(-c3cc4ccc5nc4n3CCCCCC[C@@H](OC)C(=O)N[C@@H]5C)n(C)c12 [Example 621, ~{N}-[(3~{S},4~{S})-4-fluoro-3-piperidyl]-7-methoxy-2-[(8~{R},11~ {R})-8-methoxy-11-methyl-9-oxo-1,10,19-triazatricyclo[10.5.2.0^ {15,18}]nonadeca-12(19),13,15(18),16-tetraen-17-yl]-1-methyl-benzimidazole-5-carboxamide] | 0.043 µM |

The remaining compounds from weak to strong by IC50, led by results:

| IC50 | Compound |
| --- | --- |
| 0.523 µM | C[C@H]1NC(=O)[C@@H]2C[C@H]2C/C=C/CCn2c(-c3nc4cc(C(=O)N[C@H]5CNCC[C@@H]5F)cc(C(F)(F)F)c4n3C)cc3ccc1nc32 [Example 561, ~{N}-[(3~{S},4~{S})-4-fluoro-3-piperidyl]-1-methyl-2-[(2~{R},5~{R}, 7~{R},9~{E})-2-methyl-4-oxo-3,13,19-triazatetracyclo [11.5.2.0^{5,7}.0^{16,20}]icosa-1(19),9,14,16(20), 17-pentaen-14-yl]-7-(trifluoromethyl) benzimidazole-5-carboxamide] |
| 0.067 µM | COc1cc(C(=O)N2CCC[C@@H](N)C2)cc2nc(-c3cc4ccc5nc4n3CCCCCCC(C)(C)C(=O)N[C@@H]5C)n(C)c12 [Example 16, (11~{R})-17-[5-[(3~{R})-3-aminopiperidine-1-carbonyl]-7-methoxy-1-methyl-benzimidazol-2-yl]-8,8,11-trimethyl-1,10,19-triazatricyclo[10.5.2.0^{15,18}]nonadeca-12(19),13,15(18),16-tetraen-9-one] |
| 0.051 µM | COc1cc(C(=O)N2CCC[C@@H](N)[C@H]2C)cc2nc(-c3cc4ccc5nc4n3CCCCCc3ccnc(C4CC4)c3C(=O)N[C@@H]5C)n(C)c12 [Example 664, (2~{R})-17-[5-[(2~{R},3~ {R})-3-amino-2-methyl-piperidine-1-carbonyl]-7-methoxy-1-methyl-benzimidazol-2-yl]-6-cyclopropyl-2-methyl-3,7,16,22-tetrazatetracyclo[14.5.2.0^ {5,10}.0^{19,23}] tricosa-1(22),5,7,9,17,19(23), 20-heptaen-4-one] |
| 0.049 µM | COc1cc(C(=O)N2CCC[C@@H](N)C2)cc2nc(-c3cc4ccc5nc4n3CCCCCc3nccnc3C(=O)N[C@@H]5C)n(C)c12 [Example 627, (2~{R})-17-[5-[(3~{R})-3-aminopiperidine-1-carbonyl]-7-methoxy-1-methyl-benzimidazol-2-yl]-2-methyl-3,6,9,16,22-pentazatetracyclo [14.5.2.0^{5,10}.0^{19,23}] tricosa-1(22),5(10), 6,8,17,19(23),20-heptaen-4-one] |
| 0.048 µM | COc1cc(C(=O)N2[C@H]3CC[C@@H]2[C@H](N)C3)cc2nc(-c3cc4ccc5nc4n3CC3(CC3)COCCC(=O)N[C@@H]5C)c(C)n12 [Example 329, (10~{R})-16-[7-[(1~{R},2~{R},4~{S})-2-amino-7-azabicyclo[2.2.1]heptane-7-carbonyl]-5-methoxy-3-methyl-imidazo[1,2-a]pyridin-2-yl]-10-methyl-spiro[5-oxa-1,9,18-triazatricyclo[9.5.2.0^{14,17}]octadeca-11(18),12,14(17),15-tetraene-3,1′-cyclopropane]-8-one] |
| 0.038 µM | C[C@H]1NC(=O)c2ccc(Cl)nc2CCCC(F)(F)Cn2c(-c3nc4cc(C(=O)N5C[C@H](N)[C@@H]6CC[C@H]5C6)cc(F)c4n3C3CC3)cc3ccc1nc32 [Example 814, (2~{R})-17-[5-[(1~{S), 4~{R},5~{R})-4-amino-2-azabicyclo[3.2.1]octane-2-carbonyl]-1-cyclopropyl-7-fluoro-benzimidazol-2-yl]-8-chloro-14,14-difluoro-2-methyl-3,9,16,22-tetrazatetracyclo[14.5.2.0^ {5,10).0^{19,23}]tricosa-1(21),5(10),6,8,17,19,22-heptaen-4-one] |
| 0.018 µM | COc1cc(C(=O)N2C[C@H](N)[C@@H]3CC[C@H]2C3)cc2nc(-c3cc4ccc5nc4n3CCCCC[C@H]3[C@H](C(=O)N[C@@H]5C)C3(F)F)c(C)n12 [Example 929, (2~{R},5~{R},7~{S})-14-[7-[(1~{S},4~{R},5~{R})-4-amino-2-azabicyclo[3.2.1]octane-2-carbonyl]-5-methoxy-3-methyl-imidazo[1,2-a]pyridin-2-yl]-6,6-difluoro-2-methyl-3,13,19-triazatetracyclo[11.5.2.0^ {5,7}.0^{16,20}]icosa-1(19), 14,16(20),17-tetraen-4-one] |
| 0.016 µM | CO[C@@H]1CCN(C(=O)c2cc(F)c3c(c2)nc(-c2cc4ccc5nc4n2CCCCCc2nc4ccsc4cc2C(=O)N[C@@H]5C)n3C2CC2)C[C@@H]1N [Example 797, (2~{R})-20-[5-[(3~{S},4~{R})-3-amino-4-methoxy-piperidine-1-carbonyl]-1-cyclopropyl-7-fluoro-benzimidazol-2-yl]-2-methyl-8-thia-3,12,19,25-tetrazapentacyclo[17.5.2.0^ {5,13}.0^{7,11}.0^{22,26}] hexacosa-1(24),5(13), 6,9,11,20,22,25-octaen-4-one] |
